# From US20040171543A1, “Matrix metalloproteinase inhibitors and methods for identification of lead compounds” (priority 2002, published 2004)
# Legend:
# Assay type in all cases: biochemical
# [1] = molecular target: T1, MMP-13 catalytic domain (MMP-13CD) (Homo sapiens, UniProt P45452); assay: Fluorigenic peptide-1 substrate based assay, MMP-13CD, with/without AcNHOH; settings: IC50 with AcNHOH divided by IC50 without, listed as drawing 47
# T1 construct: The catalytic domain of the MMP-13 enzyme, namely matrix metalloproteinase-13 catalytic domain (“MMP-13CD”)
# Protocol: The catalytic domain of the MMP-13 enzyme, namely matrix metalloproteinase-13 catalytic domain (“MMP-13CD”), rather than the corresponding full-length enzyme, MMP-13 was used in such assay.
# 50 mM HEPES buffer (pH 7.0)
# 2% DMSO (with or without inhibitor test compound)
# 1. Dispensed 2 μL inhibitor test sample (in 100% DMSO) into well.
# 2. Added 88 μL assay mixture and mixed well, avoiding bubbles.
# 3. Initiated reactions with 10 μL of 5 nM MMP-13CD; mixed well, avoiding bubbles.
# 4. Immediately measured the kinetics of the reactions at room temperature.
# Alternatively, an endpoint read can also be used to determine reaction velocity provided the initial fluorescence of the solution, as recorded before addition of enzyme, is subtracted from the final fluorescence of the reaction mixture.
# [2] = molecular target: T2, MMP-2 (Homo sapiens, UniProt P08253); assay: Steady-state kinetics of the mechanism of inhibition of MMP-2; settings: 6 inhibitor concentrations 0 to 600 nanomolar, FIG. 8
# T2 sequence (P08253 110-660): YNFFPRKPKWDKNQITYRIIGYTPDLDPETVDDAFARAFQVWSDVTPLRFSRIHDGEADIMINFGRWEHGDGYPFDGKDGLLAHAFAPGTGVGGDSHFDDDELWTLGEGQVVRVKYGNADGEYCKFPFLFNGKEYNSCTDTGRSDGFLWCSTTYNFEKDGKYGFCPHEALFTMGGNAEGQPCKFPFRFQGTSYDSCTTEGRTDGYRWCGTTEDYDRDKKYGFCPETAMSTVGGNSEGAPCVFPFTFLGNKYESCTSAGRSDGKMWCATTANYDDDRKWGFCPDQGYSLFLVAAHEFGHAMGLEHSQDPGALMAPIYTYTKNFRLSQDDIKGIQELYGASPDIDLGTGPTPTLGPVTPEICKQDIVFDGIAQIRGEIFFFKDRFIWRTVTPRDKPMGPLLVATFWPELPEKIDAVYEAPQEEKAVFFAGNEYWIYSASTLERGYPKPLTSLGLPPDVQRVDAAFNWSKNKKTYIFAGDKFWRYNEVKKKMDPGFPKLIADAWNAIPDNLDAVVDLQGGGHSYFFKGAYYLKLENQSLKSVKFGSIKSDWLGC
# Source text: In FIG. 8, 1 over the initial velocity Vo, which is the initial rate of product formation in a steady state kinetics assay, is plotted on the Y-axis versus 1 over concentration of substrate [S] used in the assay on the X-axis for inhibition of MMP-2 with N-[(3-phenylisoxazol-5-ylmethyl)-aminothiocarbonyl]-benzamide at 6 concentrations of from 0 nanomolar to 600 nanomolar.
# [3] = molecular target: T3, MMP-9 full length (9FL) (Homo sapiens, UniProt P14780); assay: Fluorigenic peptide-1 substrate based assay, MMP-9, with/without AcNHOH
# T3 construct: purchased Calbiochem; host or cells: stimulated neutrophils
# Source text: MMP-9 may be obtained from commercial sources. For example, full-length pro-MMP-9 purified from stimulated neutrophils is available from Calbiochem.
# [4] = molecular target: T4, MMP-2 full length (2FL) (Homo sapiens, UniProt P08253); assay: Fluorigenic peptide-1 substrate based assay, MMP-2, with/without AcNHOH
# T4 sequence (P08253 110-660): T2 sequence (P08253 110-660)
# T3 sequence (P14780 107-707 limits assumed): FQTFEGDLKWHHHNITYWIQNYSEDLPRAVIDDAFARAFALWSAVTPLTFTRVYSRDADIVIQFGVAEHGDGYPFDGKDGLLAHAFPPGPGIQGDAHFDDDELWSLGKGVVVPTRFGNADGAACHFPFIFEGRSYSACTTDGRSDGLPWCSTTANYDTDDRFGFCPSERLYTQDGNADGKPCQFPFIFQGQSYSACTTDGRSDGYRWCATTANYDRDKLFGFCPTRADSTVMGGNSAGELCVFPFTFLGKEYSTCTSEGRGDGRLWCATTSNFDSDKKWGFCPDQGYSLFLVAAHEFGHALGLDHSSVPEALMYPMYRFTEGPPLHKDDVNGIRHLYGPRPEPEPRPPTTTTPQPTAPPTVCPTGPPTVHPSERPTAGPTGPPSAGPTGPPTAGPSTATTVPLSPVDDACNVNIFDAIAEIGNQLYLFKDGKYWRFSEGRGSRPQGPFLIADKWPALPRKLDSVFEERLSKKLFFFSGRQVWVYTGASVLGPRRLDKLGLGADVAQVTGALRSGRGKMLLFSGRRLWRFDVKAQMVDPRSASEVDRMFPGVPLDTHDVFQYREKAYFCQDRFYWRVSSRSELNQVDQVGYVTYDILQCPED
structure (smiles),measurement,setting,value
O=C(NC(=S)NCc1cc(-c2ccccc2)no1)c1ccccc1 [N-[(3-phenylisoxazol-5-ylmethyl)-aminothiocarbonyl]-benzamide],IC50 Ratio (±),[1],0.09
same,Mechanism of inhibition of MMP-2,[2],uncompetitive inhibitor
same,IC50 Ratio (±),[3],0.39
same,IC50 Ratio (±),[4],0.10
